# Starred links: 1 amine or outer side, 2 acyl side, 3 side chain; linkers in the order of their positions; H or OH if unused. Positions of bridges follow the written chain, without caps; N, C: chain ends. Non-standard residues stand in square brackets, D forms with d. Residues, ends and D or L forms follow the SMILES beside them. Groups on a side chain read outwards from the residue. ξ: configuration not given here. *: point of attachment. Ala(1-CH2CO2H-4-piperidyl) = N[C@@H](CC1CCN(CC(=O)O)CC1)C(=O)O; Ala(piperidin-4-yl) = O=C([C@H](CC1CCN([*:3])CC1)N[*:1])[*:2]; DOTA = O=C(O)CN1CCN(CC(=O)O)CCN(CC(=O)*)CCN(CC(=O)O)CC1; Phe(4-COOH) = N[C@@H](Cc1ccc(C(=O)O)cc1)C(=O)O; Trp(5-F) = N[C@@H](Cc1c[nH]c2ccc(F)cc12)C(=O)O; γGlu = O=C(O)[C@H](CCC(=O)[*:2])N[*:1]; 1Nal = N[C@@H](Cc1cccc2ccccc12)C(=O)O; Ala(4-THP) = N[C@@H](CC1CCOCC1)C(=O)O; Val(3-OH) = CC(C)(O)[C@H](N)C(=O)O; X14 = CC(C)CC[C@H](NC(N)=O)C(=O)*; hCha = N[C@@H](CCC1CCCCC1)C(=O)O; Cha = N[C@@H](CC1CCCCC1)C(=O)O; Chg = N[C@H](C(=O)O)C1CCCCC1; Tle = CC(C)(C)[C@H](N)C(=O)O; hLeu = CC(C)CC[C@H](N)C(=O)O; ξF = NC(Cc1ccccc1)C(=O)O
# Target: T1, human 4lg B7-H3 (Homo sapiens, UniProt Q5ZPR3)
# T1 sequence (Q5ZPR3 29-534): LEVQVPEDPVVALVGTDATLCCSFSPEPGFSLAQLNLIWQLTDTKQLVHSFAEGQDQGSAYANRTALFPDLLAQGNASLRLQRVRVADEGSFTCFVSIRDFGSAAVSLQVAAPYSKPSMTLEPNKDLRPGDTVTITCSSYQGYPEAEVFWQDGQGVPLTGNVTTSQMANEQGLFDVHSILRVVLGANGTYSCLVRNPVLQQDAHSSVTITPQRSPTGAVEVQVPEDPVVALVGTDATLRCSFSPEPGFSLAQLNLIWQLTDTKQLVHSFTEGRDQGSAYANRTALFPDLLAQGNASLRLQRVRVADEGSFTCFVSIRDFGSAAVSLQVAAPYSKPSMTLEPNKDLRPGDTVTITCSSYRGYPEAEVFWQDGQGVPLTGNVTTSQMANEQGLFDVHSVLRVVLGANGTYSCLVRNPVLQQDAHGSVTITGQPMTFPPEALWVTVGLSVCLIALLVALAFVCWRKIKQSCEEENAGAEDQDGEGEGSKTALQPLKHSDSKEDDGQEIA
# Test: Affinity determination by surface plasmon resonance (SPR) to 4Ig B7-H3
# Conditions: SPR KD—25° C., 4Ig B7-H3; 25° C. flow cell temperature
row,Kd [nM],SMILES
1,1 to 10,"CC(=O)N[C@@H](CCC(C)C)C(=O)N[C@@H](Cc1ccc(O)cc1)C(=O)N[C@H]1CSSC[C@@H](C(=O)N[C@@H](Cc2cccc3ccccc23)C(=O)NC(Cc2ccccc2)C(=O)N2CCC[C@H]2C(=O)N[C@H](CCCCNC(=O)CC[C@H](NC(=O)CN2CCN(CC(=O)O)CCN(CC(=O)O)CCN(CC(=O)O)CC2)C(=O)O)C(N)=O)NC(=O)[C@H](Cc2ccc(O)cc2)NC(=O)[C@H](C(C)C)NC(=O)[C@H](CC(=O)O)NC(=O)[C@H](CC2CCCCC2)NC(=O)[C@H](CC2CCNCC2)NC(=O)CNC(=O)[C@H](C(C)(C)C)NC1=O (stereo partly drawn) [compound 277, Ac-hLeu-Y-C-Tbg-G-PipAla-CHA-D-V-Y-C-1Nal-F-Pro-dLys(gE-DOTA)-CONH2] (Ac-[hLeu]YC[Tle]G[Ala(piperidin-4-yl)][Cha]DVYC[1Nal][ξF]P[dK]([γGlu-DOTA])-NH2; disulfide 3-11)"
2,1 to 10,"CC(=O)N[C@@H](CCC(C)C)C(=O)N[C@@H](Cc1ccc(O)cc1)C(=O)N[C@H]1CSSC[C@@H](C(=O)N[C@@H](Cc2c[nH]c3ccc(F)cc23)C(=O)N[C@@H](Cc2ccccc2)C(=O)N[C@H](C(=O)N[C@H](CCCCNC(=O)CN2CCN(CC(=O)O)CCN(CC(=O)O)CCN(CC(=O)O)CC2)C(N)=O)[C@@H](C)O)NC(=O)[C@H](Cc2ccc(O)cc2)NC(=O)[C@H](C2CCCCC2)NC(=O)[C@H](CC(=O)O)NC(=O)[C@H](Cc2ccc(O)cc2)NC(=O)[C@H](CCCCN)NC(=O)CNC(=O)[C@H](C(C)(C)C)NC1=O [compound 181, Ac-hLeu-Y-C-Tbg-G-K-Y-D-Chg-Y-C-5FW-F-Thr-dLys(DOTA)-CONH2] (Ac-[hLeu]YC[Tle]GKYD[Chg]YC[Trp(5-F)]FT[dK](DOTA)-NH2; disulfide 3-11)"
3,< 1,"CC(=O)N[C@@H](CCC(C)C)C(=O)N[C@@H](Cc1ccc(O)cc1)C(=O)N[C@H]1CSSC[C@@H](C(=O)N[C@@H](Cc2c[nH]c3ccc(F)cc23)C(=O)N[C@@H](Cc2ccccc2)C(=O)N2CCC[C@H]2C(=O)N[C@H](CCCCNC(=O)CN2CCN(CC(=O)O)CCN(CC(=O)O)CCN(CC(=O)O)CC2)C(N)=O)NC(=O)[C@H](Cc2ccc(O)cc2)NC(=O)[C@H](C(C)C)NC(=O)[C@H](CC(=O)O)NC(=O)[C@H](Cc2ccc(C(=O)O)cc2)NC(=O)[C@H](CCCCN)NC(=O)CNC(=O)[C@H](C(C)C)NC1=O [compound 291, Ac-hLeu-Y-C-V-G-K-4COOHPhe-D-V-Y-C-5FW-F-Pro-dLys(DOTA)-CONH2] (Ac-[hLeu]YCVGK[Phe(4-COOH)]DVYC[Trp(5-F)]FP[dK](DOTA)-NH2; disulfide 3-11)"

# Same assay, conditions: SPR KD—37° C., 4Ig B7-H3; 37° C. flow cell temperature
row,Kd [nM],SMILES
1,< 1,"CC(=O)N[C@@H](CCC1CCCCC1)C(=O)N[C@@H](Cc1ccc(O)cc1)C(=O)N[C@H]1CSSC[C@@H](C(=O)N[C@@H](Cc2c[nH]c3ccc(F)cc23)C(=O)N[C@@H](Cc2ccccc2)C(=O)N[C@H](C(=O)N[C@H](C)C(=O)O)C(C)(C)O)NC(=O)[C@H](Cc2ccc(O)cc2)NC(=O)[C@H](C(C)C)NC(=O)[C@H](CC(=O)O)NC(=O)[C@H](CC2CCOCC2)NC(=O)[C@H](CC2CCN(C(=O)CC[C@H](NC(=O)CC[C@H](NC(=O)CN3CCN(CC(=O)O)CCN(CC(=O)O)CCN(CC(=O)O)CC3)C(=O)O)C(=O)O)CC2)NC(=O)CNC(=O)[C@H](C(C)(C)C)NC1=O [compound 487, Ac-hCha-Y-C-Tbg-G-Pip(gE-gE-DOTA)Ala-ThpA-D-V-Y-C-5FW-F-hydroxyVal-dAla-COOH] (Ac-[hCha]YC[Tle]G[Ala(piperidin-4-yl)]([γGlu-γGlu-DOTA])[Ala(4-THP)]DVYC[Trp(5-F)]F[Val(3-OH)][dA]-OH; disulfide 3-11)"
2,10 to 100,"CC[C@H](C)[C@@H]1NC(=O)[C@@H](NC(=O)[C@H](Cc2ccc(O)cc2)NC(=O)[C@H](CCC(C)C)NC(C)=O)CSSC[C@@H](C(=O)N[C@@H](Cc2c[nH]c3ccc(F)cc23)C(=O)N[C@@H](Cc2ccccc2)C(=O)N[C@H](C(=O)O)C(C)(C)O)NC(=O)[C@H](Cc2ccc(O)cc2)NC(=O)[C@H](C(C)C)NC(=O)[C@H](CC(=O)O)NC(=O)[C@H](CC2CCN(CC(=O)O)CC2)NC(=O)[C@H](CCCCNC(=O)CN2CCN(CC(=O)O)CCN(CC(=O)O)CCN(CC(=O)O)CC2)NC(=O)CNC1=O [compound 324, Ac-hLeu-Y-C-Ile-G-Lys(DOTA)-Pip(CH2COOH)Ala-D-V-Y-C-5FW-F-hydroxyVal-COOH] (Ac-[hLeu]YCIGK(DOTA)[Ala(1-CH2CO2H-4-piperidyl)]DVYC[Trp(5-F)]F[Val(3-OH)]-OH; disulfide 3-11)"
3,1 to 10,"CC(=O)N[C@@H](CCC(C)C)C(=O)N[C@@H](Cc1ccc(O)cc1)C(=O)N[C@H]1CSSC[C@@H](C(=O)N[C@@H](Cc2c[nH]c3ccc(F)cc23)C(=O)N[C@@H](Cc2ccccc2)C(=O)N[C@H](C(=O)N[C@H](CO)C(N)=O)C(C)(C)O)NC(=O)[C@H](Cc2ccc(O)cc2)NC(=O)[C@H](C(C)C)NC(=O)[C@H](CC(=O)O)NC(=O)[C@H](CC2CCOCC2)NC(=O)[C@H](CCCCNC(=O)CN2CCN(CC(=O)O)CCN(CC(=O)O)CCN(CC(=O)O)CC2)NC(=O)CNC(=O)[C@H](C(C)(C)C)NC1=O [compound 422, Ac-hLeu-Y-C-Tbg-G-Lys(DOTA)-ThpA-D-V-Y-C-5FW-F-hydroxyVal-dSer-CONH2] (Ac-[hLeu]YC[Tle]GK(DOTA)[Ala(4-THP)]DVYC[Trp(5-F)]F[Val(3-OH)][dS]-NH2; disulfide 3-11)"
4,1 to 10,"CC[C@H](C)[C@@H]1NC(=O)[C@@H](NC(=O)[C@H](Cc2ccc(O)cc2)NC(=O)[C@H](CCC(C)C)NC(C)=O)CSSC[C@@H](C(=O)N[C@@H](Cc2c[nH]c3ccc(F)cc23)C(=O)N[C@@H](Cc2ccccc2)C(=O)N[C@H](C(=O)O)C(C)(C)O)NC(=O)[C@H](Cc2ccc(O)cc2)NC(=O)[C@H](C(C)C)NC(=O)[C@H](CC(=O)O)NC(=O)[C@H](CC2CCNCC2)NC(=O)[C@H](CCCCNC(=O)CN2CCN(CC(=O)O)CCN(CC(=O)O)CCN(CC(=O)O)CC2)NC(=O)CNC1=O [compound 323, Ac-hLeu-Y-C-Ile-G-Lys(DOTA)-PipAla-D-V-Y-C-5FW-F-hydroxyVal-COOH] (Ac-[hLeu]YCIGK(DOTA)[Ala(piperidin-4-yl)]DVYC[Trp(5-F)]F[Val(3-OH)]-OH; disulfide 3-11)"
5,< 1,"CC(C)CC[C@H](NC(N)=O)C(=O)N[C@@H](Cc1ccc(O)cc1)C(=O)N[C@H]1CSSC[C@@H](C(=O)N[C@@H](Cc2c[nH]c3ccc(F)cc23)C(=O)N[C@@H](Cc2ccccc2)C(=O)N[C@H](C(=O)N[C@H](CCCCNC(=O)CN2CCN(CC(=O)O)CCN(CC(=O)O)CCN(CC(=O)O)CC2)C(=O)O)C(C)(C)O)NC(=O)[C@H](Cc2ccc(O)cc2)NC(=O)[C@H](C(C)C)NC(=O)[C@H](CC(=O)O)NC(=O)[C@H](CC2CCOCC2)NC(=O)[C@H](CC2CCNCC2)NC(=O)CNC(=O)[C@H](C(C)(C)C)NC1=O [Cpd #468, urea-hLeu-Y-C-Tbg-G-PipAla-ThpA-D-V-Y-C-5FW-F-hydroxyVal-dLys(DOTA)-COOH] (X14-YC[Tle]G[Ala(piperidin-4-yl)][Ala(4-THP)]DVYC[Trp(5-F)]F[Val(3-OH)][dK](DOTA)-OH; disulfide 2-10)"
